Numbers after ± are expanded uncertainties.
Assay: xn = mol fraction of the nth substance listed
Details: 101 kPa, Liquid; for speed of sound: sound velocity cell; for mass density: Vibrating tube method

CC(=O)[O-].[NH3+]CCO [2-hydroxyethylammonium acetate] + O
Details	mass density, 298.15 K [kg/m3]	mass density, 300.65 K [kg/m3]	mass density, 303.15 K [kg/m3]	mass density, 305.65 K [kg/m3]	speed of sound, 295.65 K [m/s]	speed of sound, 298.15 K [m/s]	speed of sound, 300.65 K [m/s]	speed of sound, 303.15 K [m/s]
x1 = 0.051	1051.43 ± 0.83	1050.38 ± 0.82	1049.3 ± 0.82	1048.18 ± 0.81	–	1685.5 ± 2.8	1687.2 ± 2.8	1688.6 ± 2.7
x1 = 0.1019	1080.72 ± 0.41	1079.57 ± 0.41	1078.39 ± 0.41	1077.21 ± 0.4	–	1766.7 ± 1.4	1765.8 ± 1.4	1764.8 ± 1.4
x1 = 0.1963	1111.36 ± 0.3	1110.06 ± 0.3	1108.74 ± 0.3	1107.43 ± 0.3	–	1827 ± 1.3	1823.9 ± 1.2	1820.6 ± 1.2
x1 = 0.2894	1125.89 ± 0.32	1124.53 ± 0.32	1123.17 ± 0.32	1121.8 ± 0.32	–	1835.5 ± 1.4	1831.6 ± 1.4	1827.5 ± 1.4
x1 = 0.3959	1135.24 ± 0.49	1133.86 ± 0.49	1132.47 ± 0.48	1131.08 ± 0.48	–	1825.2 ± 1.6	1820.6 ± 1.6	1816 ± 1.6
x1 = 0.5016	1140.33 ± 0.71	1138.94 ± 0.71	1137.56 ± 0.71	1136.16 ± 0.71	–	1814.2 ± 1.9	1809.4 ± 1.9	1804.6 ± 1.9
x1 = 0.5821	1142.82 ± 0.93	1141.44 ± 0.92	1140.07 ± 0.92	1138.68 ± 0.92	1816.5 ± 2	1811.6 ± 2	1806.7 ± 2	1801.9 ± 2
x1 = 0.6837	1144.63 ± 1.2	1143.27 ± 1.2	1141.9 ± 1.2	1140.52 ± 1.2	1808.4 ± 2.3	1803.3 ± 2.3	1798.2 ± 2.3	1793.2 ± 2.3
x1 = 0.7763	1146.5 ± 1.6	1145.08 ± 1.6	1143.67 ± 1.6	1142.31 ± 1.6	1807.5 ± 2.6	1802.1 ± 2.6	1796.9 ± 2.6	1791.7 ± 2.6
x1 = 0.8761	1147.91 ± 2	1146.49 ± 2	1145.07 ± 2	1143.65 ± 2	1798.7 ± 2.8	1793 ± 2.8	1787.4 ± 2.8	1782 ± 2.8
x1 = 0.9137	1148.26 ± 2.1	1146.85 ± 2.1	1145.43 ± 2.1	1144.01 ± 2.1	1800.5 ± 2.9	1794.7 ± 2.9	1789.1 ± 2.9	1783.6 ± 2.9
x1 = 1	1149.04 ± 2.5	1147.63 ± 2.5	1146.22 ± 2.5	1144.8 ± 2.5	1796.8 ± 3.2	1790.7 ± 3.2	1784.8 ± 3.2	1779 ± 3.2

— the NIST ThermoML archive (doi:10.1016/j.jct.2011.01.014)
